Results taken from PubChem BioAssay (NCI).
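Grown in 96-well plates, cells were treated for 48 hours with each compound at five concentrations. Insufficient inhibition: endpoint recorded as highest concentration tested. Here, GI50 denotes the concentration required for 50% inhibition of growth. TGI: concentration producing complete growth inhibition.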

Legend:
Experiment in all cases: NCI anticancer screen, dose series, 48 h
[1] = test system: SW-620 colon
[2] = test system: MALME-3M melanoma
[3] = test system: U251 CNS
[4] = test system: OVCAR-8 ovarian
[5] = test system: NCI/ADR-RES ovarian
[6] = test system: EKVX NSCLC
[7] = test system: NCI-H23 lung
[8] = test system: MDA-MB-435
[9] = test system: MCF7 breast
[10] = test system: HL-60(TB) leukemia
[11] = test system: RPMI-8226 leukemia
[12] = test system: BT-549 breast
[13] = test system: PC-3 prostate
[14] = test system: K-562 leukemia
[15] = test system: SR leukemia
[16] = test system: T-47D breast
[17] = test system: KM12 colon
[18] = test system: TK-10 renal
[19] = test system: HOP-62 NSCLC
[20] = test system: A498 renal
[21] = test system: SK-MEL-2 melanoma
[22] = test system: NCI-H522 lung
[23] = test system: MDA-MB-231 breast
[24] = test system: 786-0 renal
[25] = test system: A549 NSCLC
[26] = test system: LOX IMVI melanoma
[27] = test system: SK-MEL-5 melanoma
[28] = test system: SF-268 CNS
[29] = test system: M14 melanoma
[30] = test system: ACHN renal
[31] = test system: OVCAR-5 ovarian
[32] = test system: CAKI-1 renal
[33] = test system: HS 578T breast
[34] = test system: NCI-H460 lung
[35] = test system: SN12C renal
[36] = test system: COLO 205 colon
[37] = test system: IGROV1 ovarian
[38] = test system: UACC-62 melanoma
[39] = test system: HCT-116 colon
[40] = test system: NCI-H226 lung
[41] = test system: HT29 colon
[42] = test system: HCT-15 colon
[43] = test system: SF-295 CNS
[44] = test system: DU-145 prostate
[45] = test system: OVCAR-3 ovarian
[46] = test system: SK-MEL-28 melanoma
[47] = test system: HCC-2998 colon
[48] = test system: SNB-75 CNS
[49] = test system: SK-OV-3 ovarian
[50] = test system: UO-31 renal
[51] = test system: HOP-92 NSCLC
[52] = test system: SF-539 CNS
[53] = test system: OVCAR-4 ovarian
[54] = test system: UACC-257 melanoma
[55] = test system: CCRF-CEM leukemia
[56] = test system: SNB-19 CNS
[57] = test system: RXF 393 renal
[58] = test system: MOLT-4 leukemia

## CN1C(=O)C(C)(C)Oc2c(-c3cn(C)c(=O)c4[nH]ccc34)cc(S(C)(=O)=O)cc21
[1]
  GI50: 2150 nM
  TGI: 19200 nM
[2]
  GI50: 1100 nM
  TGI: 25800 nM
[3]
  GI50: 1520 nM
  TGI: > 100000 nM
[4]
  GI50: 1810 nM
  TGI: > 100000 nM
[5]
  GI50: 14300 nM
  TGI: > 100000 nM
[6]
  GI50: 972 nM
  TGI: > 100000 nM
[7]
  GI50: 1710 nM
  TGI: 18700 nM
[8]
  GI50: 637 nM
  TGI: > 100000 nM
[9]
  GI50: 338 nM
  TGI: > 100000 nM
[10]
  GI50: 281 nM
  TGI: 847 nM
[11]
  GI50: 243 nM
  TGI: 4940 nM
[12]
  GI50: 1090 nM
  TGI: 14700 nM
[13]
  GI50: 2010 nM
  TGI: > 100000 nM
[14]
  GI50: 765 nM
  TGI: > 100000 nM
[15]
  GI50: 469 nM
  TGI: > 100000 nM
[16]
  GI50: 808 nM
  TGI: > 100000 nM
[17]
  GI50: 1440 nM
  TGI: 16100 nM
[18]
  GI50: 495 nM
  TGI: 14600 nM
[19]
  GI50: 732 nM
  TGI: > 100000 nM
[20]
  GI50: 1110 nM
  TGI: 5980 nM
[21]
  GI50: 1950 nM
  TGI: > 100000 nM
[22]
  GI50: 383 nM
  TGI: 5000 nM
[23]
  GI50: 664 nM
  TGI: > 100000 nM
[24]
  GI50: 2060 nM
  TGI: > 100000 nM
[25]
  GI50: 989 nM
  TGI: > 100000 nM
[26]
  GI50: 462 nM
  TGI: 1730 nM
[27]
  GI50: 1340 nM
  TGI: 3270 nM
[28]
  GI50: 3990 nM
  TGI: > 100000 nM
[29]
  GI50: 727 nM
  TGI: > 100000 nM
[30]
  GI50: 1390 nM
  TGI: > 100000 nM
[31]
  GI50: 1060 nM
  TGI: > 100000 nM
[32]
  GI50: 271 nM
  TGI: 16100 nM
[33]
  GI50: 425 nM
  TGI: 6710 nM
[34]
  GI50: 2290 nM
  TGI: > 100000 nM
[35]
  GI50: 2680 nM
  TGI: > 100000 nM
[36]
  GI50: 469 nM
  TGI: 10500 nM
[37]
  GI50: 890 nM
  TGI: > 100000 nM
[38]
  GI50: 390 nM
  TGI: 11800 nM
[39]
  GI50: 1130 nM
  TGI: 12200 nM
[40]
  GI50: 2260 nM
  TGI: > 100000 nM
[41]
  GI50: 339 nM
  TGI: > 100000 nM
[42]
  GI50: 2580 nM
  TGI: 39200 nM
[43]
  GI50: 2680 nM
  TGI: > 100000 nM
[44]
  GI50: 3850 nM
  TGI: > 100000 nM
[45]
  GI50: 999 nM
  TGI: 5170 nM
[46]
  GI50: 3920 nM
  TGI: > 100000 nM
[47]
  GI50: 1240 nM
  TGI: 2860 nM
[48]
  GI50: 155 nM
  TGI: 1490 nM
[49]
  GI50: 705 nM
  TGI: 7040 nM
[50]
  GI50: 431 nM
  TGI: > 100000 nM
[51]
  GI50: 408 nM
  TGI: > 100000 nM
[52]
  GI50: 580 nM
  TGI: 40300 nM
[53]
  GI50: 741 nM
  TGI: 33600 nM
[54]
  GI50: 865 nM
  TGI: > 100000 nM
[55]
  GI50: 1450 nM
  TGI: > 100000 nM
[56]
  GI50: 1600 nM
  TGI: > 100000 nM
[57]
  GI50: 1590 nM
  TGI: 7120 nM
[58]
  GI50: 1420 nM
  TGI: > 100000 nM

## CC(=O)N1c2ccc(-c3ccc(C(=O)O)cc3)cc2[C@H](Nc2ccc(Cl)cc2)C[C@@H]1C
[1]
  GI50: 11100 nM
  TGI: > 62000 nM
[2]
  GI50: 168 nM
  TGI: 3640 nM
[3]
  GI50: 1550 nM
  TGI: 32900 nM
[4]
  GI50: 2520 nM
  TGI: 63500 nM
[5]
  GI50: 551 nM
  TGI: > 100000 nM
[6]
  GI50: 452 nM
  TGI: > 64000 nM
[7]
  GI50: 918 nM
  TGI: 44300 nM
[8]
  GI50: 233 nM
  TGI: > 56000 nM
[9]
  GI50: 27.3 nM
  TGI: > 100000 nM
[10]
  GI50: 38.4 nM
  TGI: 11100 nM
[11]
  GI50: 61.5 nM
  TGI: 18600 nM
[12]
  GI50: 1270 nM
  TGI: 29600 nM
[13]
  GI50: 1240 nM
  TGI: 28700 nM
[14]
  GI50: 168 nM
  TGI: > 55200 nM
[15]
  GI50: 34.2 nM
  TGI: 18700 nM
[16]
  GI50: 108 nM
  TGI: 31000 nM
[17]
  GI50: 924 nM
  TGI: 20200 nM
[18]
  GI50: 56.9 nM
  TGI: 17900 nM
[19]
  GI50: 67.7 nM
  TGI: 22400 nM
[20]
  GI50: 66.7 nM
  TGI: 1710 nM
[21]
  GI50: 581 nM
  TGI: 14300 nM
[22]
  GI50: 63.7 nM
  TGI: 11500 nM
[23]
  GI50: 1190 nM
  TGI: > 100000 nM
[24]
  GI50: 125 nM
  TGI: 40200 nM
[25]
  GI50: 1230 nM
  TGI: 28100 nM
[26]
  GI50: 62.8 nM
  TGI: 3480 nM
[27]
  GI50: 357 nM
  TGI: 12600 nM
[28]
  GI50: 5760 nM
  TGI: > 90900 nM
[29]
  GI50: 96 nM
  TGI: 23200 nM
[30]
  GI50: 410 nM
  TGI: 21900 nM
[31]
  GI50: 1450 nM
  TGI: > 46600 nM
[32]
  GI50: 45.7 nM
  TGI: > 100000 nM
[33]
  GI50: 54.9 nM
  TGI: > 57900 nM
[34]
  GI50: 1610 nM
  TGI: > 55600 nM
[35]
  GI50: 3890 nM
  TGI: 99000 nM
[36]
  GI50: 61.5 nM
  TGI: 12800 nM
[37]
  GI50: 531 nM
  TGI: 64900 nM
[38]
  GI50: 26.1 nM
  TGI: 11500 nM
[39]
  GI50: 266 nM
  TGI: 15200 nM
[40]
  GI50: 1710 nM
  TGI: 19900 nM
[41]
  GI50: 122 nM
  TGI: 29000 nM
[42]
  GI50: 61.3 nM
  TGI: 13500 nM
[43]
  GI50: 477 nM
  TGI: 18100 nM
[44]
  GI50: 12100 nM
  TGI: > 100000 nM
[45]
  GI50: 343 nM
  TGI: 18800 nM
[46]
  GI50: 494 nM
  TGI: 34800 nM
[47]
  GI50: 371 nM
  TGI: 7810 nM
[48]
  GI50: < 16.5 nM
  TGI: > 100000 nM
[49]
  GI50: 138 nM
  TGI: 22500 nM
[50]
  GI50: < 25.1 nM
  TGI: 13000 nM
[51]
  GI50: 24 nM
  TGI: 13300 nM
[52]
  GI50: 62.2 nM
  TGI: 20200 nM
[53]
  GI50: 686 nM
  TGI: > 100000 nM
[54]
  GI50: 366 nM
  TGI: 21500 nM
[55]
  GI50: 1630 nM
  TGI: 30300 nM
[56]
  GI50: 1060 nM
  TGI: > 100000 nM
[57]
  GI50: 5410 nM
  TGI: 40900 nM
[58]
  GI50: 1790 nM
  TGI: 39200 nM
